Experimental data: US20120214818A1, “METHODS OF TREATING DIASTOLIC DYSFUNCTION AND RELATED CONDITIONS” (THE BOARD OF TRUSTEES OF THE UNIVERSITY OF ILLINOIS, priority 2009, published 2012)
Values joined by “and” are separate entries in the source; they are usually repeats but may differ in a detail not shown here. Equal entries are not always repeated.

Assays:
DOCA-salt and sham mice = assay: Invasive hemodynamic (pressure-volume catheter) assessment of diastolic dysfunction, acute ranolazine; format: in vivo, mouse; settings: for DBP, diastolic blood pressure / EDPVR, end diastolic pressure volume relationship (slope) / EF, ejection fraction (invasive) / ESPVR, end systolic pressure volume relationship / HR, heart rate / LVEDP, left ventricular end diastolic pressure / LVESP, left ventricular end systolic pressure / dP/dt max / dP/dt min: ranolazine 5 mg/kg i.v. then 4.8 mg/kg/h; for SBP, systolic blood pressure: ranolazine 5 mg/kg intravenous injection then infusion 4.8 mg/kg/h
Protocol: Generation of DOCA-salt mouse model: Previously, it was shown that this model leads to mild hypertension, myocardial oxidative stress, and diastolic dysfunction.^20 A gradual and mild elevation in blood pressure was induced by unilateral nephrectomy, subcutaneous implantation of a controlled release deoxycorticosterone acetate (DOCA) pellet (0.7 mg/d; Innovative Research of America, Sarasota, Fla.), and substituting drinking water with 1.05% saline. Control animals underwent a sham operation, had placebo pellet implantation, and received water without salt. Invasive assessment of diastolic dysfunction: Mice were anesthetized with 1-1.5% isoflurane and maintained at 37° C. The pressure-volume (PV) catheter was inserted into the right common carotid artery and advanced into the LV. […] Volume and parallel conductance calibration were performed as previously described.^20 Baseline hemodynamic measurements were obtained, and subsequently, the mice received an intravenous injection of ranolazine (5 mg/kg) followed by an infusion at 4.8 mg/kg/h, while additional hemodynamic measurements were recorded. Blood samples were obtained during the last five minutes of the procedure to determine the plasma ranolazine concentration. Previously, we have shown that this model leads to mild hypertension, myocardial oxidative stress, and diastolic dysfunction.^20 A gradual and mild elevation in blood pressure was induced by unilateral nephrectomy, subcutaneous implantation of a controlled release deoxycorticosterone acetate (DOCA) pellet (0.7 mg/d; Innovative Research of America, Sarasota, Fla.), and substituting drinking water with 1.05% saline. Control animals underwent a sham operation, had placebo pellet implantation, and received water without salt. Mice were anesthetized with 1-1.5% isoflurane and maintained at 37° C. The pressure-volume (PV) catheter was inserted into the right common carotid artery and advanced into the LV. […] Volume and parallel conductance calibration were performed as previously described.^20 Baseline hemodynamic measurements were obtained, and subsequently to determine the acute effect, the mice received an intravenous injection of ranolazine (5 mg/kg) followed by an infusion at 4.8 mg/kg/h, while additional hemodynamic measurements were recorded. Blood samples were obtained during the last five minutes of the procedure to determine the plasma ranolazine concentration.

[1] = system: late INa in isolated murine ventricular myocytes; assay: Voltage-clamp determination of sodium current (late INa); format: cell-based, mouse; set-up: late INa (integrated from 5% of peak current to 40 ms after depolarization): unit not given here; settings: 10 μmol/L ranolazine extracellular; for late INa (integrated from 5% of peak current to 40 ms after depolarization): 15 min
Protocol: Electrophysiological determination of sodium current: Voltage-clamp experiments were performed on isolated murine ventricular myocytes with an Axopatch 200B amplifier (Molecular Devices, Sunnyvale, Calif.) in whole cell configuration. Data acquisition was performed at a sampling rate of 20 kHz and filtered at 10 kHz. Data recording and analysis were done with the pClamp8 software suite (Molecular Devices) and OriginPro 8 (Originlab, Northampton, Mass.). All experiments were carried out at room temperature. Myocytes were plated on glass cover slips and were perfused with a low-sodium Tyrode solution containing the following (in mM): N-methyl-D-glucamine 100 (titrated to pH 7.4 with HCl), NaCl 15, tetramethylammonium chloride 20, CsC15, MgCl2 1, glucose 10, 4-aminopyridine 3, MnCl2 2, HEPES10, and CaCl2 1 (final pH 7.4, CsOH). Patch electrodes were pulled from capillaries purchased from Harvard Apparatus (Holliston, Mass.) using a model P-97 puller from Sutter Instruments (Novato, Calif.). Electrodes were filled with an electrode solution containing (in mM): CsCl 20, tetraethylammonium chloride 20, glutamic acid 80, NaCl 10, MgCl2 1, MgATP 5, Li2GTP 0.3, HEPES10, EGTA 10, CaCl2 0.13 (corresponding to [Ca^2+]free of <10 nM).^23 Electrode solution pH was adjusted to 7.2 with CsOH. Electrodes used for these experiments had access resistances between 1.0 and 1.5 MΩ.
Ranolazine was provided as a crystalline solid by Gilead Sciences. Prior to experiments, a DMSO stock solution was prepared and diluted (minimum 100:1) directly into the Tyrode solution used for perfusion. Cells that were treated with ranolazine were exposed to the drug for 15 min prior to beginning voltage-clamp experiments.
Voltage clamping studies: Voltage-clamp experiments were performed on isolated murine ventricular myocytes with an Axopatch 200B amplifier (Molecular Devices, Sunnyvale, Calif.) in whole cell configuration. Data acquisition was performed at a sampling rate of 20 kHz and filtered at 10 kHz. […]

Compound: COc1ccccc1OCC(O)CN1CCN(CC(=O)Nc2c(C)cccc2C)CC1 (stereo not drawn) [ranolazine]
- Pearson correlation coefficient of EDPVR with serum/plasma ranolazine levels (DOCA-salt and sham mice; DOCA-salt mice, n=6, p<0.05): 0.70
- DBP, diastolic blood pressure (DOCA-salt and sham mice; DOCA-salt mice): 73 ± 2 mmHg
- EDPVR, end diastolic pressure volume relationship (slope) (DOCA-salt and sham mice; DOCA-salt mice): 0.17±0.01 mmHg/μL
- EF, ejection fraction (invasive) (DOCA-salt and sham mice; DOCA-salt mice): 67 ± 4%
- ESPVR, end systolic pressure volume relationship (DOCA-salt and sham mice; DOCA-salt mice): 4.1 ± 0.2 mmHg/μL
- HR, heart rate (DOCA-salt and sham mice; DOCA-salt mice): 588 ± 16 bpm
- LVEDP, left ventricular end diastolic pressure (DOCA-salt and sham mice; DOCA-salt mice): 3.5±0.4 mmHg and 3.6 ± 0.4 mmHg
- LVESP, left ventricular end systolic pressure (DOCA-salt and sham mice; DOCA-salt mice): 98 ± 3 mmHg
- dP/dt max (DOCA-salt and sham mice; DOCA-salt mice): 12,495 ± 555 mmHg/sec
- dP/dt min (DOCA-salt and sham mice; DOCA-salt mice): −12,211 ± 792 mmHg/sec
- SBP, systolic blood pressure (DOCA-salt and sham mice; DOCA-salt mice): 102 ± 3 mmHg
- DBP, diastolic blood pressure (DOCA-salt and sham mice; sham mice): 58 ± 2 mmHg
- EDPVR, end diastolic pressure volume relationship (slope) (DOCA-salt and sham mice; sham mice): 0.18±0.01 mmHg/μL
- EF, ejection fraction (invasive) (DOCA-salt and sham mice; sham mice): 73 ± 5%
- ESPVR, end systolic pressure volume relationship (DOCA-salt and sham mice; sham mice): 3.9 ± 0.5 mmHg/μL
- HR, heart rate (DOCA-salt and sham mice; sham mice): 620 ± 5 bpm
- LVEDP, left ventricular end diastolic pressure (DOCA-salt and sham mice; sham mice): 4.2 ± 0.5 mmHg
- LVESP, left ventricular end systolic pressure (DOCA-salt and sham mice; sham mice): 84 ± 3 mmHg and 85 ± 3 mmHg
- dP/dt max (DOCA-salt and sham mice; sham mice): 12,032 ± 787 mmHg/sec
- dP/dt min (DOCA-salt and sham mice; sham mice): −10,083 ± 685 mmHg/sec
- SBP, systolic blood pressure (DOCA-salt and sham mice; sham mice): 93 ± 3 mmHg
- late accumulated charge ([1]; DOCA-salt cardiomyocytes): did not affect the late accumulated charge
- late INa (integrated from 5% of peak current to 40 ms after depolarization) ([1]; DOCA-salt myocytes): 0.1142±0.01272 and 0.114±0.013
- late INa (integrated from 5% of peak current to 40 ms after depolarization) ([1]; sham myocytes): 0.1126±0.00406 and 0.113±0.004
